Positions count from the first letter of the chain named. Converted amounts (≈) assume the structure as drawn. Where two headings read alike, the source gives them in different places.
Columns and labels:
RBE (R132S) cells = test: 2-HG production, monolayer (2D), mass spectrometry, RBE; format: cell-based; conditions: Homo sapiens, mass spec; for Emax: read-out: 2D Cellular 2HG Production (Mass Spec) RBE (R132S) % EMax; for EC50: read-out: 2D Cellular 2HG Production (Mass Spec) RBE (R132S) EC50
Method: (§1) (Supplementary Table 2). Inhibition of the target was assessed by quantitative measurement of 2-HG levels in extracellular media of monolayer (or 2-dimentional, 2D) cultures following incubation (48 hrs) with inhibitors. […]
(§2) treated 96-well plates (Corning) at a density of 8000 cells/well/100 μL . Plates were sealed with gas permeable membranes (Research Products International Corp.) and incubated at 37°C, 5% CO2, 90% RH for 24 hr. Growth media was subsequently aspirated and replaced with 100 μL of a solution of growth media cont aining either vehicle DMSO or indicated mIDH1 inhibitor. Each compound was tested as an 8-point dilution series ranging from 5 μM to 2.3 nM. After 48 hr treatment, 75 μL of the exhausted media was collected and snap frozen on dry ice. Samples were analyzed by LC-MS for 2- HG concentrations using Rapidfire / Mass Spectrometry (Quintara) (4) . Remaining cells were assessed for viability by adding 100 μL of fresh media and 50 μL of CellTiter-Glo reagent (Promega) as per manufacturer instructions. Luminescence was read using a Vi ewLux High-throu ghpu t CCD imager (PerkinElmer) equipped with clear filters.

JJ012 (R132G) cells = test: 2-HG production, monolayer (2D), mass spectrometry, JJ012; format: cell-based; conditions: Homo sapiens, mass spec; for Emax: read-out: 2D Cellular 2HG Production (Mass Spec) JJ012 (R132G) % EMax; for EC50: read-out: 2D Cellular 2HG Production (Mass Spec) JJ012 (R132G) EC50
Method: as §1, §2

[1] = system: JJ012 (R132G) 3D cellular spheroids; test: 2-HG production, spheroids (3D), JJ012; format: cell-based; conditions: Homo sapiens; 3D spheroid, mass spec
Source text: (§3) To evaluate the effect of mIDH1 inhibitors in more relevant models of solid tumors, we adapted a 3-dimensional (3D) multicellular tumor spheroid assay to monitor spheroid formation and 2-HG production. Small molecules can have diminished efficacy in multicellular tumor spheroid models due to limited penetration and the heterogeneous nature of the 3D tumor spheroid[39],[40]. We began by testing the 6 aforementioned cell lines for their ability to form spheroids in ultra-low attachment plates at varying cell concentrations (1000–5000 cells/well). […] Overall, spheroids produced less extracellular 2-HG than cells cultured in monolayer (Fig. 7B).
(§4) Using these simple 3D models of solid tumors, we assessed the ability of inhibitors to reduce 2-HG production.
(§5) 2-HG production: Cells grown as spheroids (3D)
(§6) (RBE) cells/well/150 μ L to form spheroids. Of note, we were not able to obtain spheroids using SNU1079 cells. Plates were sealed with gas permeable membranes, centrifuged at 40 rcf for 1 min, and incubated at 37°C, 5% CO2, 90% RH for 96 (HT108 0, U87 and JJ01 2) or 4 8 (RBE) h r. Cells were washed (by remo ving 10 0 μL of exhausted media and re placing it with 100 μL of growth media, twice) and treated with 50 μL of a solution of media containing the indicated compounds. Each compound was tested as an 8-point dilution series ranging from 5 μM to 2.3 nM.
(§7) After 96 hr of t reatment, 100 μL of the exhausted media was collected and snap frozen on dry ice. Samples were analyzed by LC -MS for 2- HG concentrations using Rapidfire /Mass Spectrometry (Quintara) ( 4) . Plates were first imaged on the Celigo Imaging Cytometer (Ne xcelom Bioscience) to quantify area of each spheroid. Cell viability was subsequently measured using the CellTiter-Glo assay with some modifications: 50 μL of a solution of CellTiter-Glo reagent containing a final concentration of 0.025 % Trypsin (Thermo Sci entific) was added to each well and plates were shaken at 500 rpm for 30 min before reading.

[2] = system: RBE (R132S) 3D cellular spheroids; test: 2-HG production, spheroids (3D), RBE; format: cell-based; conditions: Homo sapiens; 3D spheroid, mass spec
Source text: as §3, §4, §5, §6, §7

IDH1 WT = IDH1 WT (Homo sapiens, UniProt O75874); test: Wild type IDH1 enzyme assay, diaphorase/resazurin coupled; conditions: for Emax: read-out: IDH1 WT % EMax; for EC50: IDH1 WT EC50, Biochemical
Sequence of IDH1 WT (O75874 whole entry): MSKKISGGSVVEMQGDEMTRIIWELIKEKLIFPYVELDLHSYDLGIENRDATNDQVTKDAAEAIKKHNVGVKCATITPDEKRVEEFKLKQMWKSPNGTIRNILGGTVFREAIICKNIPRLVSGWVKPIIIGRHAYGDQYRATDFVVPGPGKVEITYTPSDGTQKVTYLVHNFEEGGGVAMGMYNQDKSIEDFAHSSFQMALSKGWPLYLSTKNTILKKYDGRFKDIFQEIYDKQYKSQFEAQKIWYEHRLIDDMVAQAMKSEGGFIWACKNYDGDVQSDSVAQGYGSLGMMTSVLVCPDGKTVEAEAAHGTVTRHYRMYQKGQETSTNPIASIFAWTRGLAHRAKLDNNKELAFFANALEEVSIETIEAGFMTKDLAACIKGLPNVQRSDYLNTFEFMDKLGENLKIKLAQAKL

IDH2 WT = target: T1, IDH2 WT (Homo sapiens, UniProt P48735); test: Wild type IDH2 enzyme assay, diaphorase/resazurin coupled
T1 sequence (P48735 40-452): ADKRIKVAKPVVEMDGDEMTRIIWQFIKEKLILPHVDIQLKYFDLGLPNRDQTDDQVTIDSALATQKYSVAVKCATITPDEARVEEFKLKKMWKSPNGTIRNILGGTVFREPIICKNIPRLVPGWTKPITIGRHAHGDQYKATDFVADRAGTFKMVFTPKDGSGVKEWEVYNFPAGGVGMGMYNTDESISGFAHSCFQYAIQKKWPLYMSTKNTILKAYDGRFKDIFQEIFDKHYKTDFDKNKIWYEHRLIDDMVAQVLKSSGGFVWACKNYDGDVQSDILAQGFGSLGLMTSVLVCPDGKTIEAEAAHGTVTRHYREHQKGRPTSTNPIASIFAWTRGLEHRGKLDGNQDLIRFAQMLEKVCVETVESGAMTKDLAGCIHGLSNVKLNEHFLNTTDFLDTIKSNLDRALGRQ

R172Q mIDH2 = target: T2, R172Q mIDH2 (Homo sapiens, UniProt P48735, R172Q); test: mIDH2-R172Q enzyme assay (Reaction Biology), diaphorase/resazurin coupled; conditions: for Emax: read-out: IDH2 R172Q % EMax
T2 sequence (P48735 40-452 R172Q): T1 sequence (P48735 40-452) with R133Q

[3] = High-throughput kinetic solubility (µSOL), pH 7.4; format: physicochemical; conditions: aqueous solution pH 7.4, pH 7.4, aqueous buffer, kinetic from dmso stock; read-out: HT Kinetic Solubility, Solubility
Method: High-Throughput kinetic solubility test assay
Pion’s patented µSOL assay for kinetic solubility determination was used. In this assay, the classical saturation shake- flask solub ility method was adapted to a 96-well microtiter plate format and a co-solvent method with n- propanol as the […] was utilized. Test compounds were prepared in 10 mM DMSO solutions (45 µ L), and diluted with the co-solve nt to a final drug conce ntration of […]
Samples are incubated at room temperature for 6 hrs t o achieve equilibrium. The samples were then filtered to remove any precipitate formed. The concentrat ion of the compound in the filtrate was measured by UV ab sorbance. […]
used for quantitation of unknown drug concent ration in filtrate. Spectroscopically pure 1- Propanol was used as acosolvent to suppress precipitation in the reference

[4] = High-throughput PAMPA (GIT), pH 7.4; format: in vitro ADME; conditions: read-out: HT PAMPA Permeability
Source text: In Vitro Physicochemical and Drug Metabolism Studies:
High-Throughput PAMPA assay
The stirring double- sin k PAMPA method patented by pION Inc. (Billeri ca, MA) was employed to determine the permeability of compounds via PAMPA passive diffusion. The PAMPA lipid membrane consisted of an artificial membrane of a proprietary lipid mixture and dodecane (Pion Inc.), optimized to predict gastrointestinal tract (GIT) passive diffusion permeability, was immobilized on a plastic matrix of a 96 well “donor” filter plate placed above a 96 well “a cceptor” plate. A pH 7.4 solution was used in both donor and acceptor wells. The test articles, stocked in 10 mM DMSO solutions, were diluted to 0.05 mM in aqueous buffer (pH 7.4) , and the concentration of DMSO was 0.5% in the final solution. During the 30-min permeation period at room temperature, the test samples in the donor compartment were stirred using the Gutbox te chnology (Pion Inc.) to reduce the unstirred water layer. The test article concentrations in the donor and acceptor compartments were measured using an UV plate reader (Nano Quant, Infinite 200 […]
PRO, Tecan Inc., Männedorf, Switzerland). Permeability calculations were performed using Pion Inc. software and were expressed in units of 10-6 cm/s. […]

[5] = Microsomal metabolic stability, mouse; format: in vitro ADME; conditions: pH 7.4; mouse liver microsomes
[6] = Microsomal metabolic stability, rat; format: in vitro ADME; conditions: pH 7.4; rat liver microsomes
[7] = Microsomal metabolic stability, human; format: in vitro ADME; conditions: pH 7.4; human liver microsomes
[8] = Human plasma protein binding (rapid equilibrium dialysis, Cyprotex); format: in vitro ADME; conditions: human, plasma, human plasma
hERG channel = target: T3, hERG channel (Homo sapiens, UniProt Q12809); test: hERG FluxOR-based thallium flux assay; format: cell-based; conditions: In Vitro Toxicity; for Emax: human, U2OS cells transduced with hERG-BacMam virus
T3 construct: host or cells: U2OS cells (ATCC)
T3 sequence (Q12809 whole entry): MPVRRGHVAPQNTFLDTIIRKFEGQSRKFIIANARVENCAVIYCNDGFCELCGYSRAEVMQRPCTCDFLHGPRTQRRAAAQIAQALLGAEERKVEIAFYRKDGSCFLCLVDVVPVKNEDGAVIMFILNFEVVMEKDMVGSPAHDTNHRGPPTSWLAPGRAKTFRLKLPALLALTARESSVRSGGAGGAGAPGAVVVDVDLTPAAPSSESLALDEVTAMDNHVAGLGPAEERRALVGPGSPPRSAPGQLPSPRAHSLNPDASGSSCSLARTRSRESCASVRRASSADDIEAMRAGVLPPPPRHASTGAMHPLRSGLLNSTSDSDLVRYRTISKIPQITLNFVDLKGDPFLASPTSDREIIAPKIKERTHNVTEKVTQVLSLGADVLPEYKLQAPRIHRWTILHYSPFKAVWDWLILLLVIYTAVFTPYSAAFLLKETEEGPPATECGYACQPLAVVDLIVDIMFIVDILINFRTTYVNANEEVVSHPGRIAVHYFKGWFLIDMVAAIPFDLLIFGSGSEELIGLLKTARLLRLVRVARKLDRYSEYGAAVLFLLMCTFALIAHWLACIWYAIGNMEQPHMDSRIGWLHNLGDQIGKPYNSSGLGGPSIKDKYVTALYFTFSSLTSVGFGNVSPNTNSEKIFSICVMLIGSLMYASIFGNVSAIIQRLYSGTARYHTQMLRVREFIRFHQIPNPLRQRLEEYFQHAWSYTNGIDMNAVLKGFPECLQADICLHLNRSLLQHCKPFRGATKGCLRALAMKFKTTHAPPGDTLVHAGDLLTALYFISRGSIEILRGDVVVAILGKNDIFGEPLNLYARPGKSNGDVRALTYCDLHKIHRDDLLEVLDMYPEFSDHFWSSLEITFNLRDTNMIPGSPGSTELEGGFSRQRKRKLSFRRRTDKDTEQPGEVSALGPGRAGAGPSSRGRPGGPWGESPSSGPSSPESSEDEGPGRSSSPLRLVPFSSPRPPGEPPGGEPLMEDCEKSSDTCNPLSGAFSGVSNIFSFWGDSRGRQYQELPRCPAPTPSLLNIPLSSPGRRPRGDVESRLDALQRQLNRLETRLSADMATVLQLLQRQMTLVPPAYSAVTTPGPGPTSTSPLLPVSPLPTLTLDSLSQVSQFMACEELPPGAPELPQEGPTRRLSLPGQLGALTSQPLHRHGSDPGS

in vitro = conditions: human, Caco-2
[9] = Human hepatocyte cytotoxicity (CellTiter-Glo, 72 hr); conditions: both, human, cryopreserved human hepatocytes
human hepatocytes = test: as above; conditions: Homo sapiens, Hepatocyte, read-out: Human Hepatocytes EC50
[10] = read-out: Human Plasma Protein Binding % Unbound

Emax (IDH1 WT) [%]	Emax (IDH2 WT; read-out: IDH2 % EMax) [%]	solubility kinetic at 6 h [3] [µM]	Papp at 30 min, 0.05 mM [4] [×10⁻⁶ cm/s]	half-life at 1 µM [5] [min]	half-life at 1 µM [6] [min]	half-life at 1 µM [7] [min]	fraction unbound at 4 h, 5 µM [8, 10]	Structure (SMILES)	Emax (RBE (R132S) cells) [%]	EC50 (RBE (R132S) cells) [µM]	Emax (JJ012 (R132G) cells) [%]	EC50 (JJ012 (R132G) cells) [µM]	EC50 [1] [µM]	Emax [1] [%]	EC50 [2] [µM]	Emax [2] [%]	EC50 (IDH2 WT) [µM]	Emax (IDH2 WT; read-out: IDH2 WT % EMax) [%]	EC50 (R172Q mIDH2) [µM]	Emax (R172Q mIDH2) [%]	also measured
11.8	84.7	0.458 (≈ 0.14 µg/mL)	482	13.5	26.7	20.6	0.00011	CC(C)Nc1nc(Nc2ccccc2)nc(-c2ccccc2)n1 [IDH2-C100]	–	–	–	–	–	–	–	–	6.59	–	0.343	72.2	EC50 (hERG channel): > 30 µM; Emax (hERG channel): 7.2%; Papp A→B at 2 h, 10 µM (in vitro): 0.57 ×10⁻⁶ cm/s; Papp B→A at 2 h, 10 µM (in vitro): 2.34 ×10⁻⁶ cm/s; Emax at 72 h [9]: 31.5%; EC50 (human hepatocytes): > 30 µM; EC50 (IDH1 WT): > 30 µM; IC50 (R172Q mIDH2): ~1 µM
8.1	85.2	0.374 (≈ 0.18 µg/mL)	523	4.6	4.5	3.1	0.00083	O=C(Nc1cccc(C(F)(F)F)c1)Nc1cc(S(=O)(=O)NC2CC2)ccc1-c1ccsc1 [AGI-6780]	–	–	–	–	–	–	–	–	–	–	–	74.4	fraction unbound at 4 h, 5 µM ([8]; read-out: Human Plasma Protein Binding % Bound (converted)): 0.001; EC50 (hERG channel): 25.1 µM; Emax (hERG channel): 99.8%; Papp A→B at 2 h, 10 µM (in vitro): 0.85 ×10⁻⁶ cm/s; Papp B→A at 2 h, 10 µM (in vitro): 12.5 ×10⁻⁶ cm/s; Emax at 72 h [9]: 108%; EC50 (human hepatocytes): 21.9 µM; EC50 (IDH1 WT): > 30 µM
–	–	–	–	–	–	–	–	CC(C)[C@H]1COC(=O)N1c1ccnc(N[C@@H](C)c2ccc(CN3CCC(F)(F)CC3)cc2)n1 [Novartis 224]	109	0.221	68	0.121	0.098	87.2	0.412	86.3	> 30	19.4 ± 11.4	> 30	3.4	–

Structure (SMILES)	Emax (IDH1 WT) [%]	Emax (IDH2 WT; read-out: IDH2 % EMax) [%]	solubility kinetic at 6 h [3] [µM]	Papp at 30 min, 0.05 mM [4] [×10⁻⁶ cm/s]	half-life at 1 µM [5] [min]	half-life at 1 µM [6] [min]	half-life at 1 µM [7] [min]	fraction unbound at 4 h, 5 µM [8, 10]	Emax (RBE (R132S) cells) [%]	EC50 (RBE (R132S) cells) [µM]	Emax (JJ012 (R132G) cells) [%]	EC50 (JJ012 (R132G) cells) [µM]	EC50 [1] [µM]	Emax [1] [%]	EC50 [2] [µM]	Emax [2] [%]	EC50 (IDH2 WT) [µM]	Emax (IDH2 WT; read-out: IDH2 WT % EMax) [%]	EC50 (R172Q mIDH2) [µM]	Emax (R172Q mIDH2) [%]	also measured
CC(C)(C)CC(C)(C)c1cc(Cn2ccnc2)c(O)c(Cn2ccnc2)c1 [Sanofi 1]	18.8 ± 2.2	26.7	–	–	–	–	–	–	29.3	> 30	28.8	> 30	> 30	35.3	> 30	47.3	> 30	19.9 ± 8	> 30	3.2	–
